# In US20060275356A1, “Pharmaceutical compositions for treating or preventing coronary artery disease” (priority 2005, published 2006):
# Read-outs that look alike come from different tables or passages of the source.
# Key:
# [1] = system: HepG2 cells; settings: cited from earlier work
# [2] = system: plasma apoA-I levels; test: Plasma apoA-I levels after two weeks of PI plus absorption enhancer (western immunoblotting); type: in vivo, Sprague Dawley rats; settings: 60 mg/kg PI combined with the absorption enhancer (dose per Table 1), rats
# Procedure: Individual absorption enhancers were also incorporated into the 2 g bolus dose (Table 1). […] All animals were maintained on this regime for two weeks, at which time animals were euthanized and blood samples collected by cardiac puncture. Blood samples were collected into EDTA coated tubes, placed on ice, followed by centrifugation at 1500×g for 15 min at 4° C. to separate plasma. Plasma samples were stored at −20° C. until analysis of apoA-I could be performed. Plasma apoA-I levels were determined by western immunoblotting.
# [3] = system: HDL-C cholesterol; settings: 5.5% by weight of rat chow, approximately 4 g/Kg body weight; cited from earlier work
# [4] = Effect of bile acids on absorption and transport of 3H-PI to the liver; type: in vivo, Sprague Dawley rats; settings: 120 mg/kg 3H-PI by gavage with 50 mg/kg bile acid; liver 4 hours post-gavage
# Procedure: Pharmacokinetic studies were performed to determine if specific bile acids increase the absorption and transport of phosphatidylinositol (PI) to the liver. Sprague Dawley rats (300-350 g) were fasted overnight, followed by administration of 120 mg/kg ^3H-PI by gavage. 50 mg/kg of the bile acids deoxycholate or glycocholate were also incorporated into the gavage. Animals were euthanized after 4 hours post-gavage at which time liver samples were harvested. PI was extracted from the liver samples using the acidic Bligh and Dyer extraction method (Bligh, E. G.; Dyer, W. J. Can. J. Biochem. vol. 37: 911-917, 1959 and Honeyman, T. W. et al., Biochem J. vol. 212: 489-498, 1983). Radioactivity present in the organic phase was measured to determine the amount of PI that was transported to the liver.
# [5] = system: plasma HDL-C and apoA-I; test: Oral PI in conventional formulations: increase in plasma HDL-C and apoA-I; type: in vivo; settings: oral PI about 5.6 g/day
# [6] = two pilot studies, children aged 4-19 years; cited from earlier work
compound,measurement,setting,value
"CC(C)c1c(C(=O)Nc2ccccc2)c(-c2ccccc2)c(-c2ccc(F)cc2)n1CC[C@@H](O)C[C@@H](O)CC(=O)O [atorvastatin, reference compound]",inhibition of cholesterol synthesis,[1]; concentrations between 0.01 to 10 μM,45-65%
C[C@H](CCC(=O)O)[C@H]1CC[C@H]2[C@@H]3[C@H](O)C[C@@H]4C[C@H](O)CC[C@]4(C)[C@H]3CC[C@]12C [chenodeoxycholate],increase in plasma apoA-I relative to PI alone,[2],2 fold
C[C@H](CCC(=O)NCC(=O)O)[C@H]1CC[C@H]2[C@@H]3[C@H](O)C[C@@H]4C[C@H](O)CC[C@]4(C)[C@H]3C[C@H](O)[C@]12C [glycocholate],increase in plasma apoA-I relative to PI alone,[2],6.6 fold
CCCCCCCCCCCC(=O)[O-].[Na+] [sodium laurate],increase in plasma apoA-I relative to PI alone,[2],3.7 fold
CCCCCCCCCCCCOS(=O)(=O)[O-].[Na+] [sodium lauryl sulfate],increase in plasma apoA-I relative to PI alone,[2],7.7 fold
Bromelain,increase in plasma apoA-I relative to PI alone,[2],5.4 fold
Phosphatidic acid [Phosphatidic acid (PA)],increase of HDL-C cholesterol,[3],about 2 fold
deoxycholate,increase of transport of PI to the liver,[4],20%
same,increase in plasma apoA-I relative to PI alone,[2],2 fold
phosphatidylinositol [PI],inhibition of cholesterol synthesis,[1]; concentration of 11.7 μM,50%
same,increase in plasma HDL-C,[5],~20%
same,increase in plasma apoA-I,[5],~10%
phosphatidylserine [PS],"children with improved attention, behavior, learning performance and ameliorated negative mood",[6],15 out of 20
